Some results are limits rather than exact numbers.

For the first test, the target named is T1, human capsaicin receptor (Homo sapiens, UniProt Q8NER1).
T1 construct: transfected with the pBK-CMV expression construct encoding the full length human capsaicin receptor; expressed in transfected cells; host or cells: HEK293, stably transfected clonal lines, plasmid pBK-CMV
T1 sequence (Q8NER1 whole entry): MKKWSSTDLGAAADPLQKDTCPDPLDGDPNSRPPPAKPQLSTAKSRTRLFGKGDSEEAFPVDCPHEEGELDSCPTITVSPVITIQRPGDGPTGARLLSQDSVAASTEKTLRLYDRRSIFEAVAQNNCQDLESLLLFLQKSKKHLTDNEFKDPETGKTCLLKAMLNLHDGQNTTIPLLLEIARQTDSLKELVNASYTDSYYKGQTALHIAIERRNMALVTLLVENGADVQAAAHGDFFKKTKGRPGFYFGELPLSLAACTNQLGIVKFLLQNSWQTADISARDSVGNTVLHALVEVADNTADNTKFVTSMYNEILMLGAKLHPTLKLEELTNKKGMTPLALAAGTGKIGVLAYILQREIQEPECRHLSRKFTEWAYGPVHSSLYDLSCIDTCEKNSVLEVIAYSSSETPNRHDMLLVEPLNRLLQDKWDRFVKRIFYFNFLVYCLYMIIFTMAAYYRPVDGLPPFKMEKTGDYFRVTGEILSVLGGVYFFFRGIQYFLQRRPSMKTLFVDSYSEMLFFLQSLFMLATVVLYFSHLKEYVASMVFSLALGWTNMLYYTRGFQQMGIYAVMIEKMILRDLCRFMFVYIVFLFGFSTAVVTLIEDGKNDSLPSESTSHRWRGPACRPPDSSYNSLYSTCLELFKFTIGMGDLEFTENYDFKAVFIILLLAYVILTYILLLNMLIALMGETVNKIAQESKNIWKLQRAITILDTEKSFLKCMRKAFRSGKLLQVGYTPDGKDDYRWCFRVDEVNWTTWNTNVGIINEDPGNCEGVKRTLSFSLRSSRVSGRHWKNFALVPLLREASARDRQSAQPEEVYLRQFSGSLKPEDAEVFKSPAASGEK
Kind of test: Calcium mobilization assay, determination of antagonist activity (Example 6). Format: cell-based. Particulars: concentration giving 50% decrease in the fluorescence response of cells expressing human capsaicin receptor exposed to capsaicin. Here is the method:
A cDNA encoding full length human capsaicin receptor (SEQ ID NO:1, 2 or 3 of U.S. Pat. No. 6,482,611) was subcloned in the plasmid pBK-CMV (Stratagene, La Jolla, Calif.) for recombinant expression in mammalian cells.
Human embryonic kidney (HEK293) cells were transfected with the pBK-CMV expression construct encoding the full length human capsaicin receptor using standard methods. The transfected cells were selected for two weeks in media containing G418 (400 μg/ml) to obtain a pool of stably transfected cells. Independent clones were isolated from this pool by limiting dilution to obtain clonal stable cell lines for use in subsequent experiments.
(§1) Cells transfected with expression plasmids (as described in Example 4) and thereby expressing human capsaicin receptor are seeded and grown to 70-90% confluency in FALCON black-walled, clear-bottomed 96-well plates (#3904, BECTON-DICKINSON, Franklin Lakes, N.J.). The culture medium is emptied from the 96 well plates and FLUO-3 AM calcium sensitive dye (Molecular Probes, Eugene, Oreg.) is added to each well (dye solution: 1 mg FLUO-3 AM, 440 μL DMSO and 440 μl 20% pluronic acid in DMSO, diluted 1:250 in Krebs-Ringer HEPES (KRH) buffer (25 mM HEPES, 5 mM KCl, 0.96 mM NaH2PO4, 1 mM MgSO4, 2 mM CaCl2, 5 mM glucose, 1 mM probenecid, pH 7.4), 50 μl diluted solution per well). Plates are covered with aluminum foil and incubated at 37° C. for 1-2 hours in an environment containing 5% CO2. After the incubation, the dye is emptied from the plates, and the cells are washed once with KRH buffer, and resuspended in KRH buffer.
To measure the ability of a test compound to agonize or antagonize a calcium mobilization response in cells expressing capsaicin receptors to capsaicin or other vanilloid agonist, the EC50 of the agonist capsaicin is first determined. An additional 20 μl of KRH buffer and 1 μl DMSO is added to each well of cells, prepared as described above. 100 μl capsaicin in KRH buffer is automatically transferred by the FLIPR instrument to each well. Capsaicin-induced calcium mobilization is monitored using either FLUOROSKAN ASCENT (Labsystems; Franklin, Mass.) or FLIPR (fluorometric imaging plate reader system; Molecular Devices, Sunnyvale, Calif.) instruments. Data obtained between 30 and 60 seconds after agonist application are used to generate an 8-point concentration response curve, with final capsaicin concentrations of 1 nM to 3 μM. […] software (Synergy Software, Reading, Pa.) is used to fit the data to the equation: y=a*(1/(1+(b/x)^c)) to determine the 50% excitatory concentration (EC50) for the response. In this equation, y is the maximum fluorescence signal, x is the concentration of the agonist or antagonist (in this case, capsaicin), a is the Emax, b corresponds to the EC50 value and c is the Hill coefficient. Determination Agonist Activity
Test compounds are dissolved in DMSO, diluted in 20 μl KRH buffer so that the final concentration of test compounds in the assay well is between 1 μM and 5 μM, and added to cells prepared as described above. The 96 well plates containing prepared cells and test compounds are incubated in the dark, at room temperature for 0.5 to 6 hours. It is important that the incubation not continue beyond 6 hours. Just prior to determining the fluorescence response, 100 μl capsaicin in KRH buffer at twice the EC50 concentration determined as described above is automatically added by the FLIPR instrument to each well of the 96 well plate for a final sample volume of 200 μl and a final capsaicin concentration equal to the EC50. The final concentration of test compounds in the assay wells is between 1 μM and 5 μM.
In general terms: Calcium flux is commonly read through the fluorescence of an indicator in the cells.
Consider `CC(C)(C)c1ccc(Nc2cc(NCc3ccccc3)ncn2)cc1` [Compound 61, N-Benzyl-N′-(4-tert-butyl-phenyl)-pyrimidine-4,6-diamine], for which the IC50 was ≤ 1000 nM.
Regarding `CCCCNc1nc(Nc2ccc(C(F)(F)F)cc2)nc(OCc2ccccc2C(F)(F)F)n1` [Compound 62, N-Butyl-6-(2-trifluoromethyl-benzyloxy)-N′-(4-trifluoromethyl-phenyl)-[1,3,5]triazine-2,4-diamine], the IC50 is ≤ 1000 nM.
Still for that read-out and setting: the value for `FC(F)(F)c1ccc(Nc2nc(NC3CCC3)nc(OCc3ccccc3C(F)(F)F)n2)cc1` [Compound 63, N-Cyclobutyl-6-(2-trifluoromethyl-benzyloxy)-N′-(4-trifluoromethyl-phenyl)-[1,3,5]triazine-2,4-diamine] was ≤ 1000 nM; that for `FC(F)(F)c1ccc(Nc2nc(NC3CCCCC3)nc(OCc3ccccc3C(F)(F)F)n2)cc1` [Compound 64, N-Cyclohexyl-6-(2-trifluoromethyl-benzyloxy)-N′-(4-trifluoromethyl-phenyl)-[1,3,5]triazine-2,4-diamine] was ≤ 1000 nM.
On to `FC(F)(F)c1ccc(Nc2nc(NC3CCCC3)nc(OCc3ccccc3C(F)(F)F)n2)cc1` [Compound 65, N-Cyclopentyl-6-(2-trifluoromethyl-benzyloxy)-N′-(4-trifluoromethyl-phenyl)-[1,3,5]triazine-2,4-diamine], for which the IC50 was ≤ 1000 nM.
Turning to `CC(C)CNc1nc(Nc2ccc(C(F)(F)F)cc2)nc(OCc2ccccc2C(F)(F)F)n1` [Compound 66, N-Isobutyl-6-(2-trifluoromethyl-benzyloxy)-N′-(4-trifluoromethyl-phenyl)-[1,3,5]triazine-2,4-diamine], the IC50 is ≤ 1000 nM.
As for `CC(C)Nc1nc(Nc2ccc(C(F)(F)F)cc2)nc(OCc2ccccc2C(F)(F)F)n1` [Compound 67, N-Isopropyl-6-(2-trifluoromethyl-benzyloxy)-N′-(4-trifluoromethyl-phenyl)-[1,3,5]triazine-2,4-diamine], the half-inhibitory concentration (IC50) is ≤ 1000 nM.
For the compound `CC(C)(C)Nc1nc(Nc2ccc(C(F)(F)F)cc2)nc(OCc2ccccc2C(F)(F)F)n1` [Compound 68, N-tert-Butyl-6-(2-trifluoromethyl-benzyloxy)-N′-(4-trifluoromethyl-phenyl)-[1,3,5]triazine-2,4-diamine], the IC50 is ≤ 1000 nM.

The next test has as its target T1, human capsaicin receptor. The test can be described thus: Calcium mobilization assay, capsaicin agonist response (Example 6). Format: cell-based. To be noted: capsaicin positive control, cells expressing human capsaicin receptor; read-out: approximate EC90 concentration. How it is done: as §1, with “Plates are covered with aluminum foil and incubated at 37° C. for 1-2 hours in an environment containing 5% CO2. After the incubation, the dye is emptied from the plates, and the cells are washed once with KRH buffer, and resuspended in KRH buffer.” left out
To measure the ability of a test compound to agonize or antagonize a calcium mobilization response in cells expressing capsaicin receptors to capsaicin or other vanilloid agonist, the EC50 of the agonist capsaicin is first determined. […] Capsaicin-induced calcium mobilization is monitored using either FLUOROSKAN ASCENT (Labsystems; Franklin, Mass.) or FLIPR (fluorometric imaging plate reader system; Molecular Devices, Sunnyvale, Calif.) instruments. […] In this equation, y is the maximum fluorescence signal, x is the concentration of the agonist or antagonist (in this case, capsaicin), a is the Emax, b corresponds to the EC50 value and c is the Hill coefficient. […]
On to `COc1cc(CNC(=O)CCCC/C=C/C(C)C)ccc1O` [capsaicin], for which the EC90 is ~100 nM.

As usually defined, the IC50 is the concentration needed to halve the response being measured.

The values above are taken from US20070161637A1, “Substituted pyridin-2-ylamine analogues” (Neurogen Corporation, priority 2003, published 2007).
